Results as given in patent US12345641B2, “Fluorescence quenching immunoassay” (IDEXX Laboratories, Inc., priority 2020, dated 2025).
No end group written: not given here.

Key:
anti-CysB Mab = assay: Peptide/full length canine CysB protein dose response in Tris buffer and serum (Example 51); format: binding, mouse; conditions: for fluorescence intensity as a function of CysB peptide concentration: peptide 0 to 3200 nM added to mixture of antibody and P6-Fl or P6-DFF, Tris buffer
Procedure: A mixture of CysB P6-Fl or P6-DFF in Tris buffer with 0.1% Tween 20 (200 nM, 25 μL) and anti-Cys-Mab in Tris buffer with 0.1% Tween 20 (400 nM, 25 μL) was incubated at room temperature for 30 min in the wells of a 96 well black assay plate. A series of CysB peptides P6, P7, and P14 standard solutions having peptide concentrations ranging from 0 to 3200 nM (50 μL) were then added to the mixtures of the P6-Fl or P6-DFF and anti-CysB Mab in Tris Buffer. The plate was then incubated for 30 min at room temperature and the fluorescence intensities recorded at an excitation of 485 nm and an emission of 520 nm. The results are shown in FIG. 43, FIG. 44, FIG. 45, and FIG. 46.

[1] = system: Monoclonal anti-CysB antibody (7C2); assay: Fluorescence quenching of canine CysB peptide-Fl/DFF conjugates by anti-CysB Mab or Mab-BHQ10 (Example 51); format: binding, mouse
Procedure: CysB peptide-fluorescein (Fl) or -difluorofluorescein (DFF) conjugates were dissolved in DMSO (0.5 mM) and diluted with Tris Buffer ([…] at pH8.0) to provide a stock solution (100 nM). Monoclonal anti-CysB antibody (7C2, raised against a peptide having the amino acid sequence of SEQ ID NO: 14) (8 mg/ml) was serially diluted in PBS buffer to provide solutions having an Anti-CysB-Mab concentration ranging from 0 to 800 nM in Tris buffer (50 mM at pH 8.0 with 0.5% sarkosyl (sodium lauroyl sarcosinate)). In a 96-well black assay plate containing the serially diluted Anti-CysB-Mab solution (50 μL) was added the peptide-Fl or peptide-DFF solution (50 μL), mixed well, incubated for 30 min and the fluorescence intensities recorded. The results are provided in FIG. 38, 39, 40, and Table 1.

[2] = system: Monoclonal anti-NT-proBNP antibody (ADX-15 Mab); assay: Fluorescence quenching of canine NT-proBNP peptide-Fl/DFF conjugates by anti-NT-proBNP Mab and Ab-BHQ10 (Example 52); format: binding; conditions: for fluorescence quenching: ratio of 8:1; for Percentage Fluorescence Quenching, DFF Conjugate, Ab-BHQ10 / Percentage Fluorescence Quenching, DFF Conjugate, Ab: NT-proBNP peptide-difluorofluorescein conjugate; for Percentage Fluorescence Quenching, DFF Conjugate, Ab-BHQ10 / Percentage Fluorescence Quenching, F1 Conjugate, Ab-BHQ10: mAb-BHQ10; for Percentage Fluorescence Quenching, DFF Conjugate, Ab-BHQ10 / Percentage Fluorescence Quenching, DFF Conjugate, Ab / Percentage Fluorescence Quenching, F1 Conjugate, Ab-BHQ10: molar ratio of 1:1; for Percentage Fluorescence Quenching, DFF Conjugate, Ab-BHQ10 / Percentage Fluorescence Quenching, DFF Conjugate, Ab / Percentage Fluorescence Quenching, F1 Conjugate, Ab / Percentage Fluorescence Quenching, F1 Conjugate, Ab-BHQ10: No = No Quenching; for Percentage Fluorescence Quenching, F1 Conjugate, Ab / Percentage Fluorescence Quenching, F1 Conjugate, Ab-BHQ10: NT-proBNP peptide-fluorescein conjugate; for Percentage Fluorescence Quenching, F1 Conjugate, Ab: Ab/Conjugate molar ratio of 1:1; for quenching of peptide-Fl or -DFF conjugates upon addition of antibody or antibody-BHQ10: any molar ratio from 1:1 to 8:1; for fluorescence quenching reached (up to) by anti-NT-proBNP antibody: unmodified antibody, titration 0 to 800 nM
Procedure: NT-proBNP peptide-fluorescein (Fl) or -difluorofluorescein (DFF) conjugates were dissolved in DMSO (0.4 mM) and diluted with PBS to provide a stock solution (100 nM). Monoclonal anti-NT-proBNP antibody (ADX-15 Mab, IDEXX Laboratories Inc. of Westbrook, ME) (6.84 mg/ml) was serially diluted in PBS buffer to provide solutions having an antibody concentration ranging from 0 to 800 nM in PBS. In a 96 well black assay plate containing the serially diluted antibody solution (50 μL) was added the P1-Fl or P1-DFF, or other peptide-Fl or Peptide-DFF solution (50 μL), mixed well, incubated for 30 min and the fluorescence intensities recorded (excitation at 485 nm and emission at 520 nm). The results are provided in FIG. 47, FIG. 48, and Table 2.

anti-T4-Mab = assay: Fluorescence of T3 tracers and anti-T4-Mab in the presence of T4 (Example 20); format: binding; conditions: PBS, tracer and antibody equimolar
Procedure: Similar solutions were prepared and the fluorescence measured except that the T3-F was replaced with T3-5-F, T3-E-F and T3-FITC.

[3] = Absorption and emission spectra of fluoresceins and SDMA conjugates (Example 33); format: physicochemical; conditions: PBS buffer
Source text: The maximum absorption of fluorescein (Fl) in PBS buffer is at 489 nm and the maximum fluorescence emission is at 515 nm. When the fluorescein molecule is conjugated with an SDMA molecule via a —CH2NH— linker (i.e., to provide SDMA-Fl), its maximum absorption and emission are shifted to 495 nm and 525 nm, respectively. When the fluorescein molecule is substituted by fluorine at the 2′ and 7′ positions (i.e., to provide DFF) there is no any change in the maximum absorption and emission compared to unsubstituted fluorescein. When the fluorescein molecule is substituted by chloride at the 2′ and 7′ positions (i.e., to provide DCF) the maximum absorption and emission are red-shifted to 500 nm and 525 nm, respectively. Also conjugating DFF or DCF to SDMA via a —CH2NH— linker (i.e., to provide SDMA-DFF and SDMA DCF, respectively) results in the maximum absorption and emission being red-shifted. The maximum absorption and emission wavelengths of fluorescein (FL), 2′,7′-difluorofluorescien (DFF), 2′,7′-dichlorofluorescien (DCF), and their conjugates with SDMA via a —CH2NH— linker (i.e., SDMA-Fl (i.e., structure A3), SDMA-DFF, and SDMA-DCF) are listed in the Table provided below. The absorption spectra of DFF, SDMA-DFF, DCF, SDMA-DCF, Fl, and SDMA-FL are depicted in FIG. 25A and the emission spectra of SDMA-DFF, SDMA-DCF, Fl, and SDMA-FL are depicted in FIG. 25B.

anti-T4 antibody = assay: Maximum percentage fluorescence quenching of T2-F, T3-F, T4-F by anti-T4 antibody with and without quencher label (Example 27 table); format: binding
Procedure: In another experiment, tracer T2-F, T3-F, or T4-F was dissolved in DMSO to provide a DMSO solution at a tracer concentration of 1 mM. The DMSO solution was then diluted with phosphate buffered saline (“PBS”) to provide a stock solution of each tracer at a concentration of 10 μM. Monoclonal anti-T4-Mab or anti-T4-Mab conjugated to a quencher (Cy3-Ab, IRdyeQC1-Ab, Cy5-Ab, BHQ1-Ab) were serially diluted in PBS to provide solutions having an Anti-T4-Mab or anti-T4-Mab conjugated to quencher at concentration ranging from 0 to 2 μM. In a 96 well black assay plate containing the serially diluted Anti-T4-Mab or anti-T4-Mab conjugated to quencher (95 μL) was added the tracer T2-F, T3-F, or T4-F solution (5 μL), mixed well, and incubated for 30 min and the fluorescence intensities then recorded at an excitation wavelength of 485 nm and an emission wavelength of 520 nm. The results of maximum percentage fluorescence quenching for different tracers and quencher-modified antibodies are provided in the following Table: […]

Molecule: GHDELAYF [P7, canine CysB peptide]
- fluorescence intensity as a function of CysB peptide concentration (anti-CysB Mab): a dose response was observed
- Percentage Fluorescence Quenching, DFF Conjugate At 5-Position ([1]; CysB peptide conjugated to 5-position of difluorofluorescein, Ab/Conjugate ratio = 2/1): 5%
- Percentage Fluorescence Quenching, F1 Conjugate At 5-Position ([1]; CysB peptide conjugated to 5-position of fluorescein, Ab/Conjugate ratio = 2/1): 5%

Molecule: P6-DFF: CysB peptide GDELAYF conjugated to 5-position of DFF (also: conjugated to 5-position of DFF, peptide site not given here)
- fluorescence quenching [2]: approximately 10%
- Maximum quenching ([1]; anti-CysB-Mab, molar ratio of about 4:1): ~45%

Molecule: AEQLAL [P2]
- Percentage Fluorescence Quenching, DFF Conjugate, Ab-BHQ10 [2]: No
- Percentage Fluorescence Quenching, DFF Conjugate, Ab [2]: No
- Percentage Fluorescence Quenching, F1 Conjugate, Ab [2]: No
- Percentage Fluorescence Quenching, F1 Conjugate, Ab-BHQ10 [2]: No
- quenching of peptide-Fl or -DFF conjugates upon addition of antibody or antibody-BHQ10 [2]: no quenching

Molecule: P1-DFF: NT-proBNP peptide AEQLALEPLHRS conjugated to 5-position of DFF (also: conjugated to 5-position of DFF, peptide site not given here)
- fluorescence quenching reached (up to) by anti-NT-proBNP antibody-BHQ10 [2]: approximately 65%
- fluorescence quenching reached (up to) by anti-NT-proBNP antibody [2]: approximately 70%

Molecule: P6-Fl: CysB peptide GDELAYF conjugated to 5-position of fluorescein (also: conjugated to 5-position of fluorescein, peptide site not given here)
- quenching by anti-CysB Mab-BHQ10 relative to un-modified mAb [1]: slightly higher
- fluorescence quenching ([1]; molar ratio of antibody to P6-Fl of about 8:1, unmodified anti-CysB-Mab): ~30%

Molecule: O=C(NC(Cc1cc(I)c(Oc2ccc(O)c(I)c2)c(I)c1)C(=O)O)c1ccc(-c2c3ccc(=O)cc-3oc3cc(O)ccc23)c(C(=O)O)c1 (stereo not shown) [T3-5-F, T3-5-Fluorescein]
- fluorescence quenching by anti-T4-Mab (anti-T4-Mab): not quenched

Molecule: CNC(=NCCCC(N)C(=O)NCc1c(O)c(Cl)cc2c(-c3ccccc3C(=O)O)c3cc(Cl)c(=O)cc-3oc12)NC (stereo not shown) [SDMA-DCF]
- Max Absorption [3]: 510 nm
- Max Emision [3]: 535 nm

Molecule: EPLHRS [P3]
- Percentage Fluorescence Quenching, DFF Conjugate, Ab-BHQ10 [2]: No
- Percentage Fluorescence Quenching, DFF Conjugate, Ab [2]: No
- Percentage Fluorescence Quenching, F1 Conjugate, Ab [2]: No
- Percentage Fluorescence Quenching, F1 Conjugate, Ab-BHQ10 [2]: No
- quenching of peptide-Fl or -DFF conjugates upon addition of antibody or antibody-BHQ10 [2]: no quenching

Molecule: O=C(O)c1ccccc1-c1c2ccc(=O)cc-2oc2c(CNC(Cc3cc(I)c(Oc4ccc(O)cc4)c(I)c3)C(=O)O)c(O)ccc12 (stereo not shown) [T2-F]
- Percentage of fluorescence quenching, BHQ1-Ab (anti-T4 antibody; anti-T4-Mab conjugated to BHQ1): 11%
- Percentage of fluorescence quenching, Cy5-Ab (anti-T4 antibody; anti-T4-Mab conjugated to Cy5): 16%
- Percentage of fluorescence quenching, IRdyeQC1-Ab (anti-T4 antibody; anti-T4-Mab conjugated to IRdyeQC1): 8%
- Percentage of fluorescence quenching, Ab (anti-T4 antibody; anti-T4-Mab without quencher): 22%

Molecule: YQTNKAKHDELAYF [P14]
- fluorescence intensity as a function of CysB peptide concentration (anti-CysB Mab): a dose response was observed

Molecule: O=C1OC2(c3cc(F)c(O)cc3Oc3cc(O)c(F)cc32)c2ccccc21 [DFF, 2′,7′-difluorofluorescien]
- Max Absorption [3]: 489 nm
- Max Emision [3]: 515 nm

Molecule: P1-Fl: NT-proBNP peptide AEQLALEPLHRS conjugated to 5-position of fluorescein (also: conjugated to 5-position of fluorescein, peptide site not given here)
- fluorescence quenching reached (up to) by anti-NT-proBNP antibody-BHQ10 [2]: 40%
- fluorescence quenching reached (up to) by anti-NT-proBNP antibody [2]: 70%

Molecule: O=C1OC2(c3cc(Cl)c(O)cc3Oc3cc(O)c(Cl)cc32)c2ccccc21 [DCF, 2′,7′-dichlorofluorescien]
- Max Absorption [3]: 500 nm
- Max Emision [3]: 525 nm

Molecule: P7-Fl: CysB peptide GHDELAYF conjugated to 5-position of fluorescein (also: conjugated to 5-position of fluorescein, peptide site not given here)
- fluorescence quenching relative to P6-Fl ([1]; anti-CysB-Mab): weaker quenching

Molecule: O=C(O)c1ccccc1-c1c2ccc(=O)cc-2oc2c(CNCCNC(Cc3cc(I)c(Oc4ccc(O)c(I)c4)c(I)c3)C(=O)O)c(O)ccc12 (stereo not shown) [T3-E-F, T3-Ethyl-Fluorescein]
- fluorescence quenching by anti-T4-Mab (anti-T4-Mab): quenched

Molecule: O=C(O)c1cc(NC(=S)NC(Cc2cc(I)c(Oc3ccc(O)c(I)c3)c(I)c2)C(=O)O)ccc1-c1c2ccc(=O)cc-2oc2cc(O)ccc12 (stereo not shown) [T3-FITC]
- fluorescence quenching by anti-T4-Mab (anti-T4-Mab): not quenched

Molecule: O=C(O)c1ccccc1-c1c2ccc(=O)cc-2oc2cc(O)ccc12 [Fl, fluorescein]
- Max Absorption [3]: 489 nm
- Max Emision [3]: 515 nm
- Max Absorption ([3]; listed as FI): 483 nm

Molecule: NT-proBNP P6-Fl: NT-proBNP peptide LEPLHRS conjugated to 5-position of fluorescein (also: conjugated to 5-position of fluorescein, peptide site not given here)
- fluorescence quenching [2]: approximately 10%

Molecule: P5-Fl: CysB peptide GELAYF conjugated to 5-position of fluorescein (also: conjugated to 5-position of fluorescein, peptide site not given here)
- quenching of 4′-position conjugate compared with 5-position conjugate ([1]; anti-CysB mAb): higher quenching

B1: CysB full length protein: canine cystatin-B, SEQ ID NO: 1 (protein, listed as Canis familiaris)
chain: MMCGAPSASQPATADTQAIADQVKAQLEERENKKYTTFKAVTFRSQVVAGTPYFIKVQVDDDEFVHLRVFQSLPHENKPLALSSYQTNKAKHDELAYF
- fluorescence intensity as a function of CysB full length protein concentration (anti-CysB Mab; added to mixture of antibody and tracer in the presence of varying concentrations of sarkosyl): a dose response was observed
- dose response of CysB full length protein in serum (anti-CysB Mab; antibody or antibody-BHQ10 with P6-Fl or P6-DFF, sarkosyl (1%)): dose response was also observed
